Earlier results on 1 molecule are cited in patent publication US20250375417A1, “OREXIN RECEPTOR 2 (OX2R) AGONIST FOR USE IN NARCOLEPSY TYPE 1 (NT1)” (TAKEDA PHARMACEUTICAL COMPANY LIMITED, priority 2024, published 2025).

For this data set the following is noted: phase 2 clinical studies of firazorexton; cited from earlier work.

Structures are written as SMILES.

On to `CC(C)(O)C(=O)N1CC[C@H](NS(C)(=O)=O)[C@@H]1Cc1cccc(-c2cc(F)cc(F)c2)c1F` [firazorexton], for which the Liver toxicity entry was “liver toxicity was observed”.
